Our source for the MIC values is patent US12667608B2 (priority 2020, dated 2026).

Values after ≈ are worked out from the molar mass of the structure shown.

Common to all, as to experiment: microbe, parasite or virus in culture
Holding throughout (assay type): cell-based

Assay [1] has as its system Recombinant drug-resistant BCG Strain. Particulars: Mycobacterium tuberculosis variant bovis BCG, 672 h.
For assay [2], the system named is M. bovis BCG. Particulars: Mycobacterium tuberculosis variant bovis BCG, 672 h.
The test system of assay [3] is Mtb H37Rv. The settings on record: Mycobacterium tuberculosis, 672 h.

As for `NCC[C@H](O)C(=O)N[C@@H]1C[C@H](N)[C@@H](O[C@H]2O[C@H](CN)[C@@H](O)[C@H](O)[C@H]2O)[C@H](O)[C@H]1O[C@H]1O[C@H](CO)[C@@H](O)[C@H](N)[C@H]1O` [AMK, amikacin], the MIC is 5 µg/mL (≈ 8.54 µM) in assay [1], 0.5 µg/mL (≈ 0.854 µM) in assay [2] and 0.5 to 1 µg/mL (≈ 0.854 to 1.71 µM) in assay [3].
The corresponding values for `CC(C)/N=c1\cc2n(-c3ccc(Cl)cc3)c3ccccc3nc-2cc1Nc1ccc(Cl)cc1` [CLA, clofazimine] are 0.5 µg/mL (≈ 1.06 µM), 0.25 µg/mL (≈ 0.528 µM) and 8 µg/mL (≈ 16.9 µM).
The like results for `CC[C@@H](CO)NCCN[C@@H](CC)CO` [EMB, ethambutol] were, in that order, 5 µg/mL (≈ 24.5 µM), 0.5 µg/mL (≈ 2.45 µM) and 0.5 µg/mL (≈ 2.45 µM).
For `NNC(=O)c1ccncc1` [INH, isoniazid], the figures for the MIC in assay [1], in assay [2] and in assay [3] were 0.06 µg/mL (≈ 0.438 µM), 0.1 µg/mL (≈ 0.729 µM) and 0.03 to 0.06 µg/mL (≈ 0.219 to 0.438 µM), respectively.
The corresponding values for `C[C@H]1COc2c(N3CCN(C)CC3)c(F)cc3c(=O)c(C(=O)O)cn1c23` [LFX, levofloxacin] are 4 µg/mL (≈ 11.1 µM), 0.5 µg/mL (≈ 1.38 µM) and 0.5 µg/mL (≈ 1.38 µM).
With `CC(=O)NC[C@H]1CN(c2ccc(N3CCOCC3)c(F)c2)C(=O)O1` [LZD, linezolid], the MIC in assay [1] was 0.03 µg/mL (≈ 0.0889 µM); in assay [2], 0.125 to 0.5 µg/mL (≈ 0.371 to 1.48 µM); in assay [3], 0.25 µg/mL (≈ 0.741 µM).
The like results for `COc1c(N2C[C@@H]3CCCN[C@@H]3C2)c(F)cc2c(=O)c(C(=O)O)cn(C3CC3)c12` [MFX, moxifloxacin] were, in that order, 4 µg/mL (≈ 9.96 µM), 0.5 µg/mL (≈ 1.25 µM) and 0.25 to 0.5 µg/mL (≈ 0.623 to 1.25 µM).
In the case of `O=[N+]([O-])c1cn2c(n1)OC[C@@H](OCc1ccc(OC(F)(F)F)cc1)C2` [PA-824, Pretomanid], the MIC in assay [1] was 0.25 µg/mL (≈ 0.696 µM); in assay [2], 0.25 µg/mL (≈ 0.696 µM); in assay [3], 0.06 to 0.125 µg/mL (≈ 0.167 to 0.348 µM).
On to `Nc1ccc(C(=O)O)c(O)c1` [PAS, para-aminosalicylic acid], for which the MIC was 0.25 µg/mL (≈ 1.63 µM) in assay [1], 0.25 µg/mL (≈ 1.63 µM) in assay [2] and 0.3 to 1 µg/mL (≈ 1.96 to 6.53 µM) in assay [3].
In the case of `CCCc1cc(C(N)=S)ccn1` [PRO, prothionamide], the values for the MIC in assay [1], in assay [2] and in assay [3] were 64 µg/mL (≈ 355 µM), 0.25 µg/mL (≈ 1.39 µM) and 0.5 µg/mL (≈ 2.77 µM), respectively.
The corresponding values for `CO[C@H]1/C=C/O[C@@]2(C)Oc3c(C)c(O)c4c(O)c(c(/C=N/N5CCN(C)CC5)c(O)c4c3C2=O)NC(=O)/C(C)=C\C=C\[C@H](C)[C@H](O)[C@@H](C)[C@@H](O)[C@@H](C)[C@H](OC(C)=O)[C@@H]1C` [RIF, rifampicin] are 0.5 µg/mL (≈ 0.608 µM), 0.032 µg/mL (≈ 0.0389 µM) and 0.25 µg/mL (≈ 0.304 µM).
The corresponding values for `[H]/N=C(/N)N[C@H]1[C@H](O)[C@@H](O)[C@H](O[C@@H]2O[C@@H](C)[C@](O)(C=O)[C@H]2O[C@@H]2O[C@@H](CO)[C@H](O)[C@@H](O)[C@@H]2NC)[C@@H](N/C(N)=N\[H])[C@@H]1O` [STR, streptomycin] are 64 µg/mL (≈ 110 µM), 0.25 µg/mL (≈ 0.43 µM) and 1 µg/mL (≈ 1.72 µM).
On to `COc1nc2ccc(Br)cc2cc1[C@@H](c1ccccc1)[C@@](O)(CCN(C)C)c1cccc2ccccc12` [TMC 207, bedaquiline], for which the MIC was 0.03 µg/mL (≈ 0.054 µM) in assay [1], 0.03 µg/mL (≈ 0.054 µM) in assay [2] and 0.03 to 0.12 µg/mL (≈ 0.054 to 0.216 µM) in assay [3].
